Results on two molecules are retold here after patent US8785594B2, “Glycoproteins and glycosylated cells and a method for the preparation of the same” (Glycom A/S, priority 2007, dated 2014).

Test [1] relates to B16.BL6 melanoma cells. In words: Flow cytometry with FITC-labelled GS1B4 (Example 14). The format is cell-based. The protocol:
(§1) Radioactive labelled and regular trisaccharide probe was dissolved in HBSS containing D-glucose (without Mg^2+ and Ca^2+) (Gibco Invitrogen, Taastrup, Denmark) and passed through sterile filters (0.2 μm Supor® Acrodisc® 13, Gelman Sciences, Ann Arbor, Mich.). Four different concentrations of each “Glycom conjugate” (25 mg, 5 mg, 1 mg and 0.1 mg) were made. Twelve flasks (150 cm^2) (TPP, Trasadingen Switzerland) were prepared each containing a total of 10×10^6 B16.BL6 cells. The trisaccharide probe was added and the total volume was adjusted to 20 mL with HBSS containing D-glucose (without Mg^2+ and Ca^2+). The cells were incubated with the “Glycom conjugate” for 1.5 hours at 37° C. After conjugation, the supernatant from each flask was transferred to separate 50 mL tubes (TPP, Trasadingen Switzerland). The cells were harvested with Cell Dissociation Solution C5914 (5 mL per flask) (Sigma-Aldrich, Saint Louis, Mo. and transferred to the 50 mL tubes containing the supernatant. The cells were centrifuged for 3 minutes at 300 G at 20° C. and resuspended in 5 mL of PBS (without Mg^2+ and Ca^2+). This was repeated 3 times before cell concentration and viability was determined by microscopical evaluation of trypan blue stained cell samples.
Cells conjugated with regular trisaccharide probe were analysed by flow cytometry. Four hundred μl of each cell suspension containing 2×10^5 cells were incubated for 15 minutes at 4° C. with 10 μg per mL of FITC-labelled GS1B4. Mean fluorescence intensity of cells stained with GS1B4 was measured by flow cytometry.
In general terms: Flow cytometry measures light scatter and fluorescence of single cells or particles in a stream.

For test [2], the system named is B16.BL6 melanoma cells. Briefly: Scintillation, estimation of epitopes per cell (Example 14). In kind it is cell-based. On the procedure:
as §1
Cells conjugated with radioactive labelled trisaccharide probe were centrifuged for 5 minutes at 1000 G at 20° C. The supernatants were discharged and the remaining pellets were dried. Subsequently, the pellets were dissolved in 400 μl Mili-Q H2O and 1.5 mL of scintillation fluid was added. Standards for the scintillation were made by adding 500 pCi, 0.5 pCi and 0 pCi to the 3 samples of control cells. The samples were stored at room temperature for 3 days, before the cell suspensions were transferred to scintillation vials and counted.

Regarding `O=C1N[C@@H]2O[C@H](CO)[C@@H](O[C@@H]3O[C@H](CO)[C@H](O)[C@H](O[C@H]4O[C@H](CO)[C@H](O)[C@H](O)[C@H]4O)[C@H]3O)[C@H](O)[C@H]2O1` [Compound 9, alpha-Gal trisaccharide-carbamate], the “Cells marked with GS1B4” value in test [1] (0.1 mg conjugate added) was 17.64%; in test [1] (1 mg conjugate added), 2.36%; in test [1] (5 mg conjugate added), 14.56%; in test [1] (25 mg conjugate added), 31.86%. The “Mean fluorescence intensity of cells marked with GS1B4” value in test [1] (0.1 mg conjugate added) came to 1025.86; in test [1] (1 mg conjugate added), 342.05; in test [1] (5 mg conjugate added) it was 1719.58; in test [1] (25 mg conjugate added) it was 2460.67. Also, the “Binding of FITC-labelled GS1B4 to conjugated cells” value in test [1] (0.1-25 mg regular trisaccharide probe) is “only a fraction of the conjugated cells bound detectable amounts of FITC-labelled GS1B4”.
Regarding `O=[13C]1N[C@@H]2O[C@H](CO)[C@@H](O[C@@H]3O[C@H](CO)[C@H](O)[C@H](O[C@H]4O[C@H](CO)[C@H](O)[C@H](O)[C@H]4O)[C@H]3O)[C@H](O)[C@H]2O1` [radioactive labelled conjugate], the Epitopes per cell is 3.6 × 10^6 in test [2] (0.1 mg conjugate added); 28.3 × 10^6 in test [2] (1 mg conjugate added); 152.4 × 10^6 in test [2] (5 mg conjugate added, cells from supernatant only); 364.2 × 10^6 in test [2] (25 mg conjugate added, attached cells only). Moreover, in test [2] (0.1-25 mg), the “Relation of scintillation counts to dose of conjugate” value is “positive correlation”.
